This is an account of results in patent publication US12070465B2, “Compositions and methods for the prevention and treatment of hearing loss” (Ting Therapeutics LLC, priority 2020, dated 2024).

In data set [1] the test system is zebrafish neuromast hair cells. Put plainly: Zebrafish model for excitotoxicity (kainic acid induced hair cell death). The format is in vivo. To be noted: for performance compared with Piperlongumine against kainic acid (KA) induced hair cell death: KA 300 μM 1 hour, then derivative 2 hours at 1 nM to 100 μM, better at at least one dose. How it is done: 5dpf Tg(Brn3c:mGFP) larvae were used for the experiments. Zebrafish were pretreated with kainic acid for one hour (300 μM) to mimic the excitotoxic damage induced by noise exposure, and then, post-treated with Piperlongumine-25 for 2 hours (al concentrations of 0.001 μM; 0.1 μM; 10 μM; and 100 μM). Control animal were treated with DMSO (−) or Piperlongumine-25 alone (+). Animals were then fixed and immunostained for GFP. Quantification was done by assessing three neuromasts in the same anatomic location of each animal (n=5). The data is plotted as mean+SD. Statistical testing was done with One-way ANOVA and Dunnett post-hoc test (P<0.0001 compared to KA).
Subsequently, animals were transferred to E3 water for 5 hours and fixed in 4% paraformaldehyde (PFA) overnight. Neuromast HCs were immunolabeled with anti-otoferlin (HCS-1, DSHB) and anti-GFP (NB100-1614, Novus Biologicals). These two markers were used to detect and count neuromast HCs to reduce the chances of missing some of the HCs after the treatment since as it was previously noticed that incubation with the compounds can affect GFP expression more difficult to detect under a fluorescence microscope. Otic, middle, and opercular neuromasts were identified, and HCs at SO3 (supraorbital line neuromast) and O1-2 (Otic line neuromasts) were manually counted using a Zeiss AxioSkop 2 fluorescence microscope with a 40× oil objective. Control animals were treated with DMSO (−) or Neo or GM alone (+) Animals were then fixed and immunostained for GFP and otoferlin. Quantification was done by assessing three neuromasts in the same anatomic location of each animal (n=5). The data is plotted as mean+SD. Statistical testing was done with One-way ANOVA and Dunnett post-hoc test (*P<0.05, **P<0.01, ***P<0.001 compared to either Neo or GM, respectively). […] For the screening of piperlongumine derivatives for protection against noise-induced hearing loss we employed a zebrafish model that mimics excitotoxic damage. Five-day post-fertilization (dpf) Tg(brn3c:GFP) larvae were incubated with 300 μM of KA for 1 hour followed by piperlongumine-25 for 2 hours at 0.001 μM, 0.1 μM, 10 μM, and 100 μM. DMSO and KA were used as controls.
5 dpf fish were incubated with KA 300 μM for 1 hour followed by a two-hour incubation with one of the piperlongumine derivatives at 1 nM to 100 μM. Animals were fixed and immunostained for the hair cell marker, otoferlin. Neuromast hair cells were counted under a fluorescence microscope. At least 3 neuromast of the rostral lateral line were inspected per fish, in a total of 6 fish per treatment. Results are presented as mean+/−SD. Control, KA only, PG only, PG+KA, derivatives that were no protective against excitotoxicity, derivatives that performed better than PG.
5dpf fish were incubated with KA 300 μM for 1 hour followed by one of the PG derivatives at different concentrations for additional 2 hours. Animals were fixed and immunostained for otoferlin. Neuromast hair cells were quantified in at least 3 rostral neuromasts per fish in a total of 6 fish per treatment. Results are expressed as mean+/−SD. Statistical analysis: One-way ANOVA *P<0.05, **P<0.01, P<0.001 versus KA alone. These five Piperlongumine derivatives performed better than Piperlongumine at least one dose.

For data set [2], the system named is mouse embryonic fibroblast (MEFs). Description: MTT viability of mouse embryonic fibroblasts exposed to aminoglycosides. To be noted: 15 hours. The format is cell-based. On the procedure: (§1) MEFs were incubated for 15 hours with neomycin (100 μM) or gentamicin (8 μM) with or without Piperlongumine (0.1 nM-5 μM). Cell viability was assessed employing MTT (3-(4-,5-dimethylthiazol-2-yl)-2,5-diphenyltetrazolium bromide) viability kit test (Thermo Fisher). The data is plotted as mean+SD. Statistical testing was done with One-way ANOVA and Dunnett post-hoc test (*P<0.05, **P<0.01 compared to either Neo or GM, respectively).
as §1, with “Now referring to FIG. 7 (E)-1-(3-(3,4,5-trimethoxyphenyl)acryloyl)-S,6-dihydropyridin-2(1H)-one protects mouse embryonic fibroblast (MEFs) against aminoglycosides. MEFs” for “MEFs”, “without(E)-1-(3-(3,4,5-trimethoxyphenyl)acryloyl)-S,6-dihydropyridin-2(1H)-one” for “without Piperlongumine”, “μM) at 0.1 nM, 0.5 nM, 1 nM, 5 nM, 10 nM, 50 nM, 100 nM, and 500 nM.” for “μM).”

Data set [3] deals with C57BL/6 (Cdh23 corrected) mice. Description: General toxicity in mice over the 17-day treatment regimen. Particulars: 40 mg/kg b.w. for 17 days, with and without kanamycin. The format is in vivo, mouse. On the procedure: (§2) C57BI6 (Cdh23 corrected) (6-7 weeks old) were exposed to vehicle+kanamycin (Veh+Kan) (700 mg/kg b.w. twice a day for 14 days) (shown as circles with four breaks); or (E)-1-(3-(3,4,5-trimethoxyphenyl)acryloyl)-S,6-dihydropyridin-2(1H)-one+kanamycin (PLM+Kan) with (E)-1-(3-(3,4,5-trimethoxyphenyl)acryloyl)-S,6-dihydropyridin-2(1H)-one (40 mg/kg b.w. once a day for 17 days) (shown as circle no breaks). Age match controls are shown (age, shown as circle with three breaks). Auditory brainstem response (ABR) thresholds were recorded for frequencies (4 kHz, 5.6 kHz, 8 kHz, 16 kHz, 22.6 kHz, 32 kHz, 45.2 kHz, and 64 kHz) before and after treatment protocol. […] Statistical analysis was done with repeated measures ANOVA between groups.
Now referring to FIG. 8A, Piperlongumine protects from aminoglycoside toxicity in mice in vivo. 6-7-week-old C57BL/6 (Cdh23 corrected) were used, with a mix of males and females across experiments. Procedures were approved by the IACUC committee of the Creighton University.) Mice were treated with Piperlongumine (40 mg/kg b.w., for 17 days, IP) with or without kanamycin treatment (700 mg/kg b.w. for 14 days twice a day, s.q.). Piperlongumine's protection against hearing impairment loss was assessed by measuring ABR threshold shifts in the mouse ear.
Age-control group mice were administered saline. […] Data are presented as mean+SD, n=3-4/group.

Data set [4] has as its system zebrafish lateral line neuromast hair cells. Description: Zebrafish lateral line neuromast hair cell counts after aminoglycoside (neomycin or gentamycin). The format is in vivo, Danio rerio. Particulars: 5 dpf larvae. The source says: Now referring to FIGS. 5A-C,(E)-1-(3-(3,4,5-trimethoxyphenyl)acryloyl)-S,6-dihydropyridin-2(1H)-one (Piperlongumine) protects from aminoglycoside induced hair cell loss in zebrafish lateral line neuromasts in vivo. Zebrafish lateral line neuromast HC counts are commonly used in vivo models for screening otoprotectants. Danio rerio experimental larvae were obtained by pair mating of adult fish maintained at Creighton University by standard methods approved by the Institutional Animal Care and Use Committee. Fish used were Tg(pou4f3:mGFP) expressing a membrane bound GFP in HCs. […] The lateral-line neuromasts of zebrafish are a valuable system for testing protectivity of compounds against aminoglycoside toxicity in vivo, as their HCs are considered homologous to those in the mammalian inner ear and are readily accessible to drugs. […]
Subsequently, animals were transferred to E3 water for 5 hours and fixed in 4% paraformaldehyde (PFA) overnight. […] These two markers were used to detect and count neuromast HCs to reduce the chances of missing some of the HCs after the treatment since as it was previously noticed that incubation with the compounds can affect GFP expression more difficult to detect under a fluorescence microscope. […] Quantification was done by assessing three neuromasts in the same anatomic location of each animal (n=5). […]

Data set [5] concerns C57BL/6 (Cdh23 corrected) mice. Description: ABR thresholds in kanamycin exposed mice. The format is in vivo, mouse. Particulars: at 22.6 kHz; 40 mg/kg b.w. once a day for 17 days IP; kanamycin 700 mg/kg twice a day for 14 days; p=0.0408. On the procedure:
as §2
Now referring to FIG. 8A, Piperlongumine protects from aminoglycoside toxicity in mice in vivo. 6-7-week-old C57BL/6 (Cdh23 corrected) were used, with a mix of males and females across experiments. […] Piperlongumine's protection against hearing impairment loss was assessed by measuring ABR threshold shifts in the mouse ear.
Animals were anesthetized with a mixture of ketamine/xylazine before ABR assessment. […] Evoked responses were amplified (20x), bandpass filtered (300-3,000 Hz) and average of 512 responses of 10 ms duration was recorded. […]

Take `O=C(/C=C/c1ccco1)N1CCC1=O` [PG3]: the “performance compared with Piperlongumine against kainic acid (KA) induced hair cell death” value (“performance compared with Piperlongumine” below) in data set [1] was “better performance than Piperlongumine”.

For `COc1cccc(/C=C/C(=O)N2CCCCC2=O)c1` [PG25], the “protection of neuromast hair cells from excitotoxic damage induced by kainic acid” value in data set [1] (300 μM KA 1 hour, then compound 2 hours at 0.001 μM, 0.1 μM, 10 μM, 100 μM) was “protects neuromast hair cells from excitotoxic damage”. The “performance compared with Piperlongumine” value in data set [1] is “better performance than Piperlongumine”.

In the case of `O=C(/C=C/c1ccccc1)N1CCC1=O` [PG 18], in data set [1], the “performance compared with Piperlongumine” value is “better performance than Piperlongumine”.

Regarding `O=C(/C=C/c1ccc2c(c1)OC(F)(F)O2)N1CCCCCC1=O` [PG 53], the “performance compared with Piperlongumine” value in data set [1] is given as “better performance than Piperlongumine”.

Take `O=C(/C=C/c1ccc2c(c1)OC(F)(F)O2)N1CCCCC1=O` [PG 54]: the “performance compared with Piperlongumine” value in data set [1] is “better performance than Piperlongumine”.

As for `COc1cc(/C=C/C(=O)N2CCC=CC2=O)cc(OC)c1OC` [Piperlongumine, (E)-1-(3-(3,4,5-trimethoxyphenyl)acryloyl)-S,6-dihydropyridin-2(1H)-one], in data set [2] (gentamicin 8 μM, observed at 0.1 nM to 1 nM), the “protection of MEFs against gentamycin (cell viability, MTT)” value is 100%. Further, in data set [2] (neomycin 100 μM, observed at 0.1 nM to 10 nM), the “protection of MEFs against neomycin (cell viability, MTT)” value was found to be 100%. In data set [3], the general toxicity result was “not toxic”. Moreover, in data set [4] (1 hour pre-incubation then co-incubation with 100 μM gentamycin for 1 hour), the “protection from gentamycin-induced hair cell death” value was “protects zebrafish neuromasts from gentamycin-induced hair cell death”. Besides, the “protection from neomycin-induced hair cell death” value in data set [4] (1 hour pre-incubation then co-incubation with 200 μM Neomycin for 30 minutes) is “protects zebrafish neuromasts from neomycin-induced hair cell death”. Further, the “protection of ABR threshold against kanamycin” value in data set [5] is “significant protection”.
